Results from patent US20260098017A1, “NOVEL AROMATIC RING DERIVATIVE CONTAINING AMIDE SUBSTITUTION AND USE THEREOF” (TIANJIN PHARMACEUTICAL BIOTECHNOLOGY CO., LTD., priority 2022, published 2026).
Marks after values point to notes of the source that are not given here.

Legend:
[1] = target: JAK3 JH1 kinase (Homo sapiens, UniProt P52333); assay: JAK3 JH1 enzyme assay in vitro (TR-FRET); type: biochemical; details: TR-FRET; read-out: JAK 3 JH1 IC50
[2] = tested on: imiquimod-induced mouse psoriasis-like model; assay: Imiquimod-induced mouse psoriasis-like model (PASI score); type: in vivo; details: oral gavage, 10 mg/kg, 25 mg/kg, 50 mg/kg, bid, compared with the model group
[3] = target: T1, hERG channel (Homo sapiens, UniProt Q12809); assay: hERG potassium channel inhibition assay (manual patch clamp); type: cell-based; details: HEK-293 cell line stably expressing hERG channel, at the tested concentrations
T1 construct: expressed in transfected cells; host or cells: HEK-293
Procedure: Instrumentation: HEKA EPC 10 patch clamp amplifier.
Method: in this experiment, the blocking effect of the compounds on the current of the HEK-293 cell line stably expressing hERG channel was measured using the manual patch clamp technique, and the risk of the compounds on the inhibition of cardiac hERG potassium channel was assessed by fitting the concentration effect relationship.
Procedure: in the patch clamp operation, firstly, a capillary glass tube was pulled into a recording electrode using a microelectrode puller, then an electrode filled with intracellular solution was mounted into a microelectrode holder. A microelectrode manipulator was operated under an inverted microscope to immerse the electrode into an extracellular solution and the electrode resistance (Rpip) was recorded. Then, the electrode was slowly brought into contact with the cell surface, and a negative pressure was applied for suction to form a GΩ seal. At this point, a fast capacitance compensation was performed, and a negative pressure was continuously applied to suck and break the cell membrane to form a whole cell recording mode. Finally, a slow capacitance compensation was performed and experimental parameters including series resistance (Rs) and the like were recorded. No leakage compensation was performed. When the hERG current recorded by the whole cell was stable, the administration of drugs commenced, and each drug concentration acted for about 5 min (or until the current stabilization) before detecting the next concentration. A cover glass covered with cells was placed in a recording bath under an inverted microscope, the blank control extracellular solution and the working solution of the compounds to be tested sequentially flowed through the recording bath from low concentration to high concentration by using gravity perfusion to act on the cells, and solution exchange was performed using a peristaltic pump during recording. The current measured by each cell in the extracellular solution without the compound served as its own control group. Each concentration was independently assessed twice. All electrophysiological tests were performed at room temperature.
Data Analysis: firstly, the tail current (Peak tail currentcompound) after the action of each drug concentration and the blank control tail current (Peak tail currentcontrol) were normalized, then the inhibition rate
corresponding to each drug concentration was calculated, and the mean (Mean), standard deviation (SD) and standard error (SE) of the inhibition rate corresponding to each concentration were calculated, with data expressed as Mean±SE. The calculation of IC50 value and the fitting of dose-response curve for the compound were performed using GraphPad Prism software.

[4] = target: JAK2 JH1 kinase (Homo sapiens, UniProt O60674); assay: JAK2 JH1 enzyme assay in vitro (TR-FRET); type: biochemical; details: read-out: JAK 2 JH1 IC50
[5] = tested on: imiquimod-induced mouse psoriasis-like model; assay: Imiquimod-induced mouse psoriasis-like model (PASI score); type: in vivo
Excerpt: The efficacy of the compounds according to the present invention in an imiquimod-induced mouse psoriasis-like model could be assessed using the following method:
Sample preparation: with reference to the preparation of commercially available Benvitimod cream. The compound (the compound of Example 3), the oil phase (hexadecanol, vaseline, liquid paraffin, and glyceryl mono- and distearate), the aqueous phase (propylene glycol, Tween 80, and water), and the appropriate additive (ethylparaben) were mixed, and subjected to vacuum emulsification to prepare a 1% cream sample.
A test site on the back of the animal was shaved to expose an area measuring of 2×3 cm^2. Imiquimod ointment was continuously applied to the back skin of the mice for 6 days to establish a mouse psoriasis model. From day 1 to day 6, various groups of animals were administered respectively according to the experimental protocol.
At day 7, the severity of skin inflammation was assessed and scored using a 5-point scale (0-4) (PASI score):
Skin thickness: 0: the skin was smooth without wrinkles; 1: the skin at the edge of the drug application area had slight wrinkles; 2: the skin in the drug application area all had slight wrinkles; 3: the degree of wrinkles in the drug application area was further deepened; and 4: on the basis of the score of 3, the mouse had the conditions of weight loss or poor state and the like. […]

[6] = target: JAK1 JH1 kinase (Homo sapiens, UniProt P23458); assay: JAK1 JH1 enzyme assay in vitro (TR-FRET); type: biochemical; details: read-out: JAK 1 JH1 IC50
[7] = tested on: mouse asthma model induced by OVA; assay: Mouse asthma model induced by OVA: airway hyperresponsiveness (Penh); type: in vivo; details: for Enhanced pause (Penh) value: 2 mg/mL, 50 μL endotracheally, once daily for 3 days
Procedure: The efficacy of the compounds according to the present invention in a mouse asthma model induced by OVA could be assessed using the following method:
Test sample: the compound of Example 3 was weighed accurately, and dissolved in DMSO to prepare a solution at a concentration of 2 mg/mL.
30 female BALB/c mice were adaptively fed. After one week, 10 mice were randomly taken out and fed as a blank control group, and 20 mice were selected to establish the asthma model. The model mice were intraperitoneally injected with 0.2 mL of sensitizing solution for sensitization respectively on 0, 7 and 14 days. The sensitization solution contained 50 μg of OVA and 2 mg of Al(OH)3. The blank control group received an equivalent volume of physiological saline.
From day 21 to day 23 after sensitization, the mice in the model group and the administration group were subjected to nebulization stimulation with 5% OVA for 30 min, and the mice in the blank control group received nebulization with physiological saline for the same duration.
30 min before daily stimulation of the mice, 50 μl of physiological saline was administered endotracheally to mice in the blank control and model groups, and 50 μl of the corresponding drug was administered endotracheally to mice in the Example 3 compound group, once daily for 3 consecutive days.
Airway hyperresponsiveness was measured in each group of mice after the last stimulation. The mice were placed in a whole-body plethysmograph. After recording the baseline values of enhanced pause (Penh), the mice were stimulated by nebulized methacholine, wherein the concentrations of the methacholine were 0, 6.25 and 12.5 mg/mL from low to high, the nebulization volume was 100 μL per dose for 60 s.
Statistical analysis was conducted using SPSS software, Measurement data were expressed as mean±standard deviation. One Way ANOVA was used for inter-group comparisons, LSD test was used for those with homogeneous variance, and Dunnett-t test was used for those with heterogeneous variance. Differences were statistically significant with P<0.05.

JAK3 JH1 kinase, sequence (P52333 822-1111 limits assumed): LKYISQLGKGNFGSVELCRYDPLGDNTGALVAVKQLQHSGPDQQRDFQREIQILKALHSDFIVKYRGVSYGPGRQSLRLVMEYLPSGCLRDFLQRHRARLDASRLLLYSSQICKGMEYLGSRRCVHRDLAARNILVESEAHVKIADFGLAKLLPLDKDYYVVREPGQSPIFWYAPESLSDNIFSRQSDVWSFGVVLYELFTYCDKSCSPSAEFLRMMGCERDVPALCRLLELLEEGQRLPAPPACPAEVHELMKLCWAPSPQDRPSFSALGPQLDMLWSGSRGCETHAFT
T1 sequence (Q12809 whole entry): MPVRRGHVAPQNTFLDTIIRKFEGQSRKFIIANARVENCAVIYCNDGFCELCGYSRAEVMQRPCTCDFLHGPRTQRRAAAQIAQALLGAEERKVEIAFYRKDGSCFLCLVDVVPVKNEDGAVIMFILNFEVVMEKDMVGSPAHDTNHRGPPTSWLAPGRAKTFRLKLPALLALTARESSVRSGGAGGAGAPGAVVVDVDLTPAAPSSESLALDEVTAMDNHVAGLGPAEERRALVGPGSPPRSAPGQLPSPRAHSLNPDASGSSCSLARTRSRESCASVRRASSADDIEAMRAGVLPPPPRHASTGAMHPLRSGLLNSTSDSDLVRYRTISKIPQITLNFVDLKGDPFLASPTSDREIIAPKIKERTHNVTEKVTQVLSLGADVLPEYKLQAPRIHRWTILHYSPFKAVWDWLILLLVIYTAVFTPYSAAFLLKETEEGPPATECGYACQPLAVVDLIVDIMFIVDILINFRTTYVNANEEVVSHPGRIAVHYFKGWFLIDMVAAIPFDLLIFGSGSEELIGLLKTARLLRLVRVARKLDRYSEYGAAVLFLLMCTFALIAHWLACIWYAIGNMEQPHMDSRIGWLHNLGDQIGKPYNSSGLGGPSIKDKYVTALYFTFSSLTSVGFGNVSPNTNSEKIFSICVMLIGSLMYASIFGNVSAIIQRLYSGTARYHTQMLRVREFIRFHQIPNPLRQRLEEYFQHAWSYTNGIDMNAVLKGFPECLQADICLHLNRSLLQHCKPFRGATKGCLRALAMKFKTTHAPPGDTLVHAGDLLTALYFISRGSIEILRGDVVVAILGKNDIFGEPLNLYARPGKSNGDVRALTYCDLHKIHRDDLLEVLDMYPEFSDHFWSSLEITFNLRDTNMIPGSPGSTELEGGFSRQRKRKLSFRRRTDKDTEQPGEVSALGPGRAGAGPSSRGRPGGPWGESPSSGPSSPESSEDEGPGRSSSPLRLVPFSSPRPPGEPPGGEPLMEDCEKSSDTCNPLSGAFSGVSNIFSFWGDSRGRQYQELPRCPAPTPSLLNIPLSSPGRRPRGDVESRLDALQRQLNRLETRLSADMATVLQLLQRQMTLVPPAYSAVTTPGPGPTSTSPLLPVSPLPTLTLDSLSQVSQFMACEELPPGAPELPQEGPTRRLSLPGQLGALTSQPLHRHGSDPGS
JAK2 JH1 kinase, sequence (O60674 849-1124 limits assumed): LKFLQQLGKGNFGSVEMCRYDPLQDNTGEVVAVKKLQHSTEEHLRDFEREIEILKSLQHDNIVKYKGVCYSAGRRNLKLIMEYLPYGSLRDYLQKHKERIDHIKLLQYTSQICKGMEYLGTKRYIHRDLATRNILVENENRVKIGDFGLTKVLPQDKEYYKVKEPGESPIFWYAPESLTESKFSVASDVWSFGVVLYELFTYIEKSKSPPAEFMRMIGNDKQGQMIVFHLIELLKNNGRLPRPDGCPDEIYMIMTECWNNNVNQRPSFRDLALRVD
JAK1 JH1 kinase, sequence (P23458 875-1153 limits assumed): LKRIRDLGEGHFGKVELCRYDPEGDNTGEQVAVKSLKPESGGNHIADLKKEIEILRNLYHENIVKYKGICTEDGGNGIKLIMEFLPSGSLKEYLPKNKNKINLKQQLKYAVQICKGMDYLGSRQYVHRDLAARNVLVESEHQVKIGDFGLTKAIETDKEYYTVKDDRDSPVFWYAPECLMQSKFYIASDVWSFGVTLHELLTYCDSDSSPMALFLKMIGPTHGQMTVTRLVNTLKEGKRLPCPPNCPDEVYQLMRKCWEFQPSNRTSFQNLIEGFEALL

## [2H]C([2H])([2H])NC(=O)c1nnc(NC(=O)C2CC2)cc1Nc1cccc(C(=O)Nc2cccc(C)c2)c1OC [Example 3]
[1]
  IC50: > 10 µM
[2]
  Improvement of psoriasis symptoms by oral administration: effectively improve psoriasis symptoms
[3]
  hERG inhibition: no significant inhibition
[4]
  IC50: > 10 µM
[5]; day 7, 1% cream, 100 mg, topical, qd, day 1 to 6
  Percentage reduction in PASI score %: 40.7*** %
[5]; topical cream, compared with the model group
  Improvement of psoriasis symptoms: effectively improved psoriasis symptoms
[6]
  IC50: > 10 µM
[7]; administration before stimulation, P<0.05
  Effect on enhanced pause (Penh) values compared to the model group: significantly reduce
[7]; methacholine 0 mg/mL
  Enhanced pause (Penh) value: 0.86 ± 0.31
[7]; methacholine 6.25 mg/mL
  Enhanced pause (Penh) value: 1.79 ± 0.45
[7]; methacholine 12.5 mg/mL
  Enhanced pause (Penh) value: 2.94 ± 0.66
